Patent US7972831B2, “Lipases from thermophilic anaerobes” (Novozymes A/S, priority 2004, dated 2011)
“And” between values parts separate entries of the source, which are not always exact repeats. Equal values may be shown once. Where a name gives a salt, the structure may show the parent alone.

Experiments:
[1] = test system: lipase of SEQ ID NO: 2; assay: Substrate specificity for pNP-esters; format: biochemical, Thermoanaerobacter thermohydrosulfuricus; details: pNP-ester 1 mM, pH 8.0, 10 min at 70° C.
[2] = test system: lipase; assay: Effects of metal ions on lipase activity; format: biochemical; details: metal ions up to 10 mM
Text: The activity was decreased by the following ions: Zn2+, Fe2+, Fe3+ and Cr3+.

[3] = test system: lipase of SEQ ID NO: 2; assay: Effect of inhibitors on lipase activity; format: biochemical, Thermoanaerobacter thermohydrosulfuricus; details: for effect on the activity of the lipase: up to 10 mM; for inactivation of the lipase: 0.1-1 mM
[4] = test system: lipase of SEQ ID NO: 4; assay: Effect of inhibitors on lipase activity; format: biochemical, Caldanaerobacter subterraneus subsp. tengcongensis; details: for effect on the activity of the lipase: up to 10 mM; for inactivation of the lipase: 0.1-1 mM
[5] = test system: lipase of SEQ ID NO: 2; assay: Effect of solvents on lipase activity; format: biochemical, Thermoanaerobacter thermohydrosulfuricus; details: solvent up to 50% by volume
[6] = test system: lipase of SEQ ID NO: 2; assay: Substrate specificity with triacylglycerols; format: biochemical, Thermoanaerobacter thermohydrosulfuricus; details: triacylglycerol 10 mM, pH 8.0, 25 h at 70° C.
Procedure: The lipase of SEQ ID NO: 2 was tested by reaction with various triacylglycerols 10 mM (pH 8.0) as substrates: for 25 h at 70° C. Similar results were obtained with the lipase of SEQ ID NO: 4.

[7] = test system: lipase of SEQ ID NO: 2; assay: Enantioselectivity of ester hydrolysis; format: biochemical, Thermoanaerobacter thermohydrosulfuricus
Procedure: The (S)-alcohols were formed. The lipase was more enantioselective towards butynol butyrate than towards butynol acetate. Over time the conversion increased for all four substrates and reached above 20-30% after 24 h of reactions time. Over time in the contrast to the conversion the enantioselectivity of the enzyme towards both substrates decreased for butynol butyrate from 16.7 to 8.06 and for butynol acetate from 9.15 to 2.65 after 40 h of reactions time. […] For two other substrates the enantioselectivity of the lipase (E≧1) was constant over time.

[8] = test system: lipase; assay: Effect of detergent ingredients on lipase activity; format: biochemical; details: 1.5 hours at 30° C., up to 10% by weight of compound
Procedure: The activity of the lipase was tested after incubation for 1.5 hours at 30° C. with up to 10% by weight of various compounds.

[9] = test system: lipase from T. thermohydrosulfuricum (SEQ ID NO: 2); assay: Alcoholysis of triacylglycerols (positional specificity towards triglycerides); format: biochemical, Thermoanaerobacter thermohydrosulfuricus; details: for DG 1,3- / FA (fatty acid) / MG 1- 3- / TG (remaining substrate) / DG 1,2- 2,3-: alcoholysis with ethanol in acetone, 7 h at 65° C.
Procedure: Alcoholysis of various triacylglycerols catalyzed by the lipase of SEQ ID NO: 2 were tested. All substrates were alcoholyzed by the lipase. […] For other substrates the conversions were above 40%. The lipase catalysed the synthesis of 1,3-diacylglycerides and 1- and 3-monoacylglycerides from triacylglycerides at highest rate. No sn2-monoglyceride was produced. […] With the length of the ester bonds the 2-positional specificity of the protein increased.
The positional specificity of the lipase from T. thermohydrosulfuricum (SEQ ID NO: 2) was tested towards the following triglycerides (TG, triacylglycerols): trilaurin (C12), trimyristin (C14), tripalmitin (C16), tristearin (C18), Triolein (C18:1). Each TG (3 mmol) was dissolved in organic solvent (2 ml acetone) and pre-equilibrated at 65° C. for 15 min, 400 rpm. Dry ethanol (3 mmol) was added and reaction mixture was incubated at 65° C. for 15 min, 400 rpm. Lipase (10% based on TG weight) was added to start reaction. Reaction was carried out in a 4-ml screw-capped vial and the reaction mixture was mixed with magnetic stirrer (400 rpm). Aliquot amount of reaction mixture (20 μl) was periodically withdrawn and diluted with chloroform (80 μl) to appropriate dilution, followed by analysis with latroscan to determine acylglycerol composition.
Changes in glycerides composition of the reaction medium during reaction were quantitatively determined by TLC/FID using latroscan analytical methods (latroscan, latron Laboratories, Inc., Tokyo, Japan). Before analysis, a blank of the chromarod was scanned. After treating chromarod with boric acid (3%) and drying for 5 min, 0.1 μl of the reaction medium (diluted in chloroform at appropriate dilution) is spotted onto the chromarod and the spotted sample was developed for 10 cm in a mixture of benzene:chloroform:acetic acid (50:30:0.5, by vol) for 35 min. After drying, the chromarod in an oven at 110° C. for 5 min, scanning is performed at a hydrogen flow rate of 160 ml/min and an air flow rate of 2.01/min to produce a chromatogram.
The results of the alcoholysis of the triacylglycerols catalysed by the lipase from […] after 7 h reactions time at 65° C. are given below as % of remaining substrate (TG) and % of the following products: fatty acid (FA), diglycerides (DG, with 1,3-DG separated from 1,2- and 2,3-DG), monoglyceride (MG, with 2-MG separated from 1- and 3-MG).

CCCCCCCCCC(=O)Oc1ccc([N+](=O)[O-])cc1 [pNP-caprate, pNP-caprate (C10:0)]
Relative activity [1]: 100

CCCCCCCCCCCC(=O)Oc1ccc([N+](=O)[O-])cc1 [pNP-laurate, pNP-laurate (C12:0)]
Relative activity [1]: 84

[Ni+2] [Ni2+]
lipase activity in the presence of metal ions [2]: nearly unchanged

O[C@@H](CS)[C@@H](O)CS [DTT]
effect on the activity of the lipase [3]: little effect | effect on the activity of the lipase [4]: little effect

CCCCCCCCCCCCCCCCCC(=O)Oc1ccc([N+](=O)[O-])cc1 [pNP-stearate, pNP-stearate (C18:0)]
Relative activity [1]: 8

CC(C)(C)O [tert-butanol]
effect on the activity of the lipase [5]: little effect

CCCCCCCC(=O)OCC(COC(=O)CCCCCCC)OC(=O)CCCCCCC [Tricaprylin, Tricaprylin (C8:0)]
Relative activity [6]: 100

[Ca+2] [Ca2+]
lipase activity in the presence of metal ions [2]: nearly unchanged

O=S(=O)(F)Cc1ccccc1 [PMSF]
inactivation of the lipase [3]: inactivated | inactivation of the lipase [4]: inactivated

[Fe+3] [Fe3+]
lipase activity in the presence of metal ions [2]: decreased

[Cr+3] [Cr3+]
lipase activity in the presence of metal ions [2]: decreased

butynol butyrate
enantiopreference [7]: (S)-preference | lipase activity towards substrate [7]: active | E-value (enantioselectivity) ([7]; after 40 h of reactions time): 8.06 | E-value (enantioselectivity) ([7]; initial value): 16.7

CC(=O)OC(C)Cc1ccccc1 (centres unmarked) [1-phenyl-2-propyl-acetate]
lipase activity towards substrate [7]: active

CCO [ethanol]
effect on the activity of the lipase [5]: little effect

O=C(O)c1cc[c]([Hg][OH])cc1 [pHMB]
effect on the activity of the lipase [3]: little effect | effect on the activity of the lipase [4]: little effect

CCCCCCCC(=O)Oc1ccc([N+](=O)[O-])cc1 [pNP-caprylate, pNP-caprylate (C8:0)]
Relative activity [1]: 90

CCCCCCCCCCCCCCCC(=O)Oc1ccc([N+](=O)[O-])cc1 [pNP-palmitate, pNP-palmitate (C16:0)]
Relative activity [1]: 32

[Al+3] [Al3+]
lipase activity in the presence of metal ions [2]: nearly unchanged

CCCCCCCCCC(=O)OCC(COC(=O)CCCCCCCCC)OC(=O)CCCCCCCCC [Tricaprin, Tricaprin (C10:0)]
Relative activity [6]: 15

CCCCCCCC/C=C\CCCCCCCC(=O)OCCOCC(OCCO)C1OCC(OCCO)C1OCCO (centres unmarked) [Tween-80]
effect on activity after incubation [8]: decreased the activity

CC(=O)OC(C)c1ccccc1 (centres unmarked) [1-phenyl-1-ethyl-acetate]
lipase activity towards substrate [7]: active

CCCCCCCCCCCCCCCCCC(=O)OCC(COC(=O)CCCCCCCCCCCCCCCCC)OC(=O)CCCCCCCCCCCCCCCCC [Tristearin, Tristearin (C18:0)]
Relative activity [6]: 9 | conversion ([9]; alcoholysis of triacylglycerol): 67% | DG 1,3- [9]: 48% | FA (fatty acid) [9]: 10% | MG 1- 3- [9]: 9% | TG (remaining substrate) [9]: 33%

CN(C)C=O [dimethylformamide]
effect on the activity of the lipase [5]: little effect

CCCCCCCCCCCCCC(=O)Oc1ccc([N+](=O)[O-])cc1 [pNP-myristate, pNP-myristate (C14:0)]
Relative activity [1]: 68

N=C(N)N [guanidine hydrochloride]
effect on the activity of the lipase [3]: little effect | effect on the activity of the lipase [4]: little effect

CC(=O)Oc1ccc([N+](=O)[O-])cc1 [pNP-acetate, pNP-acetate (C2:0)]
Relative activity [1]: 9

CC(C)=O [acetone]
effect on the activity of the lipase [5]: little effect

CCCCCCCCCCCCCC(=O)OCC(COC(=O)CCCCCCCCCCCCC)OC(=O)CCCCCCCCCCCCC [Trimyristin, Trimyristin (C14:0)]
Relative activity [6]: 8 | DG 1,2- 2,3- [9]: 2% | DG 1,3- [9]: 12% | FA (fatty acid) [9]: 1% | MG 1- 3- [9]: 19% | TG (remaining substrate) [9]: 66%

CCCC(=O)Oc1ccc([N+](=O)[O-])cc1 [pNP-butyrate, pNP-butyrate (C4:0)]
Relative activity [1]: 57

NC(N)=O [urea]
effect on the activity of the lipase [3]: little effect | effect on the activity of the lipase [4]: little effect

O=C(O)CI [iodo-acetate]
effect on the activity of the lipase [3]: little effect | effect on the activity of the lipase [4]: little effect

CO [methanol]
effect on the activity of the lipase [5]: little effect

[K+] [K+]
lipase activity in the presence of metal ions [2]: nearly unchanged

[Co+2] [Co2+]
lipase activity in the presence of metal ions [2]: nearly unchanged

Triolein (C18:1)
Relative activity [6]: 12 | DG 1,3- [9]: 18% | FA (fatty acid) [9]: 2% | MG 1- 3- [9]: 17% | TG (remaining substrate) [9]: 63%

CCCCCC(=O)Oc1ccc([N+](=O)[O-])cc1 [pNP-caproate, pNP-caproate (C6:0)]
Relative activity [1]: 81

[Sr+2] [Sr2+]
lipase activity in the presence of metal ions [2]: nearly unchanged

NCCc1ccc(S(=O)(=O)F)cc1 [Pefablock]
inactivation of the lipase [3]: inactivated | inactivation of the lipase [4]: inactivated

CCCCCCCCCCCC(=O)OCC(COC(=O)CCCCCCCCCCC)OC(=O)CCCCCCCCCCC [Trilaurin, Trilaurin (C12:0)]
Relative activity [6]: 11 | DG 1,2- 2,3- [9]: 6% | DG 1,3- [9]: 12% | FA (fatty acid) [9]: 2% | MG 1- 3- [9]: 22% | TG (remaining substrate) [9]: 58%

[Na+] [Na+]
lipase activity in the presence of metal ions [2]: nearly unchanged

c1ccncc1 [pyridine]
effect on the activity of the lipase [5]: little effect

CC#N [acetonitrile]
effect on the activity of the lipase [5]: little effect

CC(=O)OCC(COC(C)=O)OC(C)=O [Triacetin, Triacetin (C2:0)]
Relative activity [6]: 5

OCCS [b-mercaptoethanol]
effect on the activity of the lipase [3]: little effect | effect on the activity of the lipase [4]: little effect

CC(C)O [isopropanol]
effect on the activity of the lipase [5]: little effect

[Cu+2] [Cu2+]
lipase activity in the presence of metal ions [2]: nearly unchanged

[Fe+2] [Fe2+]
lipase activity in the presence of metal ions [2]: decreased

[Ag+] [Ag+]
lipase activity in the presence of metal ions [2]: nearly unchanged

butynol acetate
enantiopreference [7]: (S)-preference | lipase activity towards substrate [7]: active | E-value (enantioselectivity) ([7]; after 40 h of reactions time): 2.65 | E-value (enantioselectivity) ([7]; initial value): 9.2 and 9.15

C[S+](C)[O-] [DMSO]
effect on the activity of the lipase [5]: little effect

[Zn+2] [Zn2+]
lipase activity in the presence of metal ions [2]: decreased

CCCCCC(=O)OCC(COC(=O)CCCCC)OC(=O)CCCCC [Tricaproin, Tricaproin (C6:0)]
Relative activity [6]: 74

[Mn+2] [Mn2+]
lipase activity in the presence of metal ions [2]: nearly unchanged

[Mg+2] [Mg2+]
lipase activity in the presence of metal ions [2]: nearly unchanged

CCCCCCCCCCCCCCCC(=O)OCC(COC(=O)CCCCCCCCCCCCCCC)OC(=O)CCCCCCCCCCCCCCC [Tripalmitin, Tripalmitin (C16:0)]
Relative activity [6]: 22 | DG 1,2- 2,3- [9]: 1% | DG 1,3- [9]: 13% | FA (fatty acid) [9]: 3% | MG 1- 3- [9]: 18% | TG (remaining substrate) [9]: 65%

CCCC(=O)OCC(COC(=O)CCC)OC(=O)CCC [Tributyrin, Tributyrin (C4:0)]
Relative activity [6]: 10

[Rb+] [Rb+]
lipase activity in the presence of metal ions [2]: nearly unchanged
